# According to patent publication US8211912B2, “Compositions and methods for effecting NAD+ levels using a nicotinamide phosphoribosyl tranferase inhibitor” (Gemin X Pharmaceuticals Canada, priority 2007, dated 2012):
# “And” between values parts separate entries of the source, which are not always exact repeats. Equal entries are not always repeated. Where two headings read alike, the source gives them in different places.
# Legend:
# [1] = system: HeLa cells; conditions: Compound 1 20 nM, NM contained 0.1% NA
# Description: (§1) Viability was measured after 72 hours by ViaLight assay (assessing ATP levels). […] Each bar is the mean±SD of quadruplicate samples. Each figure is representative of two independent experiments.
# Viability was measured after 72 hours by ViaLight assay. […] Each point represents the mean and error bars the SD of triplicate samples. […] The concentration of nicotinamide in RPMI 1640 media was […]. HeLa cells were transiently transfected with vector (pcDNA3) or a plasmid expressing a flag-tagged yeast PNC1 gene (pcFLAG-PNC1). […] Relative viability was assessed after 72 hours by ViaLight assay.
# [2] = Additional combination experiments with Compound 1; type: cell-based
# [3] = system: DMS-114 human small cell lung carcinoma cells; test: Sensitization to DNA damaging chemotherapeutic agents, relative ATP viability, 3 days; type: cell-based; conditions: for Fold change (IC50 in DMS-114 cells): without vs with 0.75 nM Compound 1
# Description: (§3) Cells were plated in logarithmic growth phase at 500-20,000 cells per well in 96-well clear bottom plates (Corning; Corning, N.Y.) and cultured for 14 to 16 hours prior to the start of drug treatment. Serial dilutions of Compound 2 and Compound 1 were made in DMSO, diluted 1:50 in RPMI-1640 (Hyclone; Logan, Utah) and then added to tissue culture media at a final concentration of 0.2% DMSO. […] Relative ATP levels were determined by the bioluminescent measuring of cellular ATP levels in each culture well with the ViaLight-HS High Sensitivity Cytotoxicity and Cell Proliferation BioAssay Kit (Cambrex Bioproducts, Cat. No. LT07-311; Charles City, Iowa) according to manufacturer's instructions. Briefly, a cell permeabilizing reagent was added to each culture well in media at the time of viability determination, allowing free ATP to be released from viable cells in the culture. Addition of luciferase to the mixture catalyzes the release of light proportional to the amount of free ATP present, which can then be quantified in a Centro LB 960 luminometer (EG&G Berthold; Oak Ridge, Tenn.); the level of ATP is generally directly proportional to the viability of the cells.
# (§4) Sigmoidal dose response curves were then generated using non-linear regression analysis of variable slope by Prism Version 4.00 for Windows (GraphPad Software, Inc.; San Diego, Calif.) and IC50 values calculated.
# (§5) The IC50 values for the treatment with the DNA damaging agent were calculated relative to control cells that were treated with DMSO only.
# [4] = system: Jurkat human T cell leukemia cells; test: as above; conditions: for Fold change (IC50 in Jurkat cells): without vs with 0.5 nM Compound 1
# Description: as §3, §4, §5
# [5] = system: NAD^+ levels in HeLa cells; conditions: Compound 1 100 nM, 10 mM nicotinic acid
# Description: as §1
# [6] = system: NF-κB regulated gene expression in HeLa cells; conditions: Compound 1 100 nM, 10 mM nicotinic acid, 24 hrs then 4 hours TNFα
# Description: as §1
# [7] = system: SW982 synovial sarcoma cell line; conditions: 0.01, 0.1 and 1 mM nicotinic acid
# Excerpt: In FIGS. 10 and 11, fraction of cell survived is indicated by the vertical axis (labeled as “% control”).
# [8] = system: human multiple myeloma IM-9 cancer cells; test: Xenograft of a cancer not deficient in nicotinic acid pathway; type: in vivo, CB17 SCID mice
# Description: (§2) Human multiple myeloma IM-9 cancer cells were maintained in RPMI (Hyclone, Utah, USA) supplemented with 10% inactivated fetal bovine serum (Bio-Whittaker; MD, USA) and 1% penicillin-streptomycin-L-Glutamine (Gibco; NY, USA), under 5% CO2 at 37° C. IM-9 cells were transplanted subcutaneously into the flank of female mice. Each mouse was inoculated with a suspension of 10×10^6 tumors cells per 100 μl in PBS on day zero.
# Treatments started on day eight after IM-9 cells transplantation. […] The control group was treated with vehicle (0.9% NaCl) alone for 104 hours. […] Compound 2 was prepared fresh for dosing and formulated in a vehicle solution of 10 mM citrate buffer at pH 4.8.
# Observation continued for 23 days after initial tumor implantation.
# [9] = system: Human Fibrosarcoma HT1080 cancer cells; test: Xenograft of a cancer deficient in nicotinic acid pathway; type: in vivo, mice
# Description: as §2, with “Fibrosarcoma HT1080” for “multiple myeloma IM-9”, “(Bio-Whittaker, Md.,” for “(Bio-Whittaker; MD,”, “HT1080” for “IM-9”, “1×10^6” for “10×10^6”
# Treatments started on day fifteen after HT1080 cells transplantation. […] The control group was treated with vehicle (0.9% NaCl) alone for 104 hours. Treatments were conducted using Lomir External pump—Model 220 with a flow rate of 50 μL/hr (˜2.5 mL/kg/hr) and equipped with 1 cc syringes for treated groups or equipped with 10 cc syringes for the control group. Compound 2 was prepared fresh for dosing and formulated in a vehicle solution of 10 mM citrate buffer at pH 4.8.
# Observation continued for 22 days after initial tumor implantation.
# [10] = system: cancer cell lines
# [11] = system: Hs821.T giant cell sarcome; conditions: 0.01, 0.1 and 1 mM nicotinic acid
# [12] = system: U-2OS osteosarcome; conditions: 0.01, 0.1 and 1 mM nicotinic acid
# [13] = system: HT1080 fibrosarcoma; conditions: 0.01, 0.1 and 1 mM nicotinic acid
# [14] = system: GCT MFH histiocytoma; conditions: 0.01, 0.1 and 1 mM nicotinic acid
# [15] = system: SW1353 chondrosarcoma; conditions: 0.01, 0.1 and 1 mM nicotinic acid
# [16] = system: A204 rhabdomyosarcoma; conditions: 0.01, 0.1 and 1 mM nicotinic acid
# [17] = system: MG-63 osteosarcoma; conditions: 0.01, 0.1 and 1 mM nicotinic acid
# [18] = system: IMR32 (neuroblastoma); conditions: 0.01, 0.1 and 1 mM nicotinic acid
# [19] = system: T98G (glioblastoma); conditions: 0.01, 0.1 and 1 mM nicotinic acid
# [20] = system: colon cancer cell line Colo320DM; conditions: the only one of fourteen other carcinomas
# [21] = Nicotinic acid as antidote to a lethal 24 h infusion of Compound 2 in non-tumor-bearing mice; conditions: Compound 2 650 mg/kg 24 h infusion
# Description: CB17 SCID female mice, 5 mice per group, who were not bearing tumors were administered a lethal dose of Compound 2 as a 24 h infusion of Compound 2 at 650 mg/kg. Thereafter, mice were infused with saline for 24 h (Group 1); a niacin solution (12 mg/mL) for 4 hours at a dose of 90 mg/m2/h (30 mg/kg/h) followed by saline for another 20 h at a flow rate of 50 μL/h (Group 2); or a niacin solution (12 mg/mL) for 24 hours at a dose of 90 mg/m^2/h (30 mg/kg/h) with a flow rate of 50 μL/h.
# [22] = Nicotinic acid pre-treatment against lethal intramuscular Compound 2 in non-tumor-bearing mice
# [23] = molecular target: human NMPRT (Homo sapiens, UniProt P43490); conditions: cited from earlier work
# [24] = Homo sapiens, DMS-114, 72 h, read-out: IC50 in DMS-114 cells (μM), DNA damaging chemotherapeutic agent + No Compound 1, agent alone, 3 days, relative to DMSO control
# [25] = read-out: IC50 in DMS-114 cells (μM), DNA damaging chemotherapeutic agent + 0.75 nM Compound 1, with 0.75 nM Compound 1, 3 days, relative to Compound 1 only control
# [26] = Homo sapiens, Jurkat, 72 h, read-out: IC50 in Jurkat cells (μM), DNA damaging chemotherapeutic agent + No Compound 1
# [27] = read-out: IC50 in Jurkat cells (μM), DNA damaging chemotherapeutic agent + 0.5 nM Compound 1, with 0.5 nM Compound 1, 3 days, relative to Compound 1 only control
# Sequence of human NMPRT (P43490 whole entry): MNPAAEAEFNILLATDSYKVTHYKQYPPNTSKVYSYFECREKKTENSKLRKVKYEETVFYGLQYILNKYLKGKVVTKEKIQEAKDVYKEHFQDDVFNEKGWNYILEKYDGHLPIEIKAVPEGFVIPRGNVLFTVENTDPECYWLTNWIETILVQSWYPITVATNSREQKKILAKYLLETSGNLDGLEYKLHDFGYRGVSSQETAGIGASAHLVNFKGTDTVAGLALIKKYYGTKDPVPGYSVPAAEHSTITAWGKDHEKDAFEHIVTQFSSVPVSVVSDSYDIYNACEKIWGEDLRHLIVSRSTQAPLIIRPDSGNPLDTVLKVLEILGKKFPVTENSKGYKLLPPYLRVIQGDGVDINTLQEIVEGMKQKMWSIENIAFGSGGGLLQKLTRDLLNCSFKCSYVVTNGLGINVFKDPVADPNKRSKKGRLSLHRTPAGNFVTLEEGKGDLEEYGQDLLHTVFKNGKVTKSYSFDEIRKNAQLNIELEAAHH
structure (smiles),measurement,setting,value
NC(=O)c1cccnc1 [nicotinamide],Concentrations rescuing viability relative to those required for NA rescue,[1],"1,000 ×"
CC(=O)O[C@H]1C(=O)[C@@]2(C)[C@H]([C@H](OC(=O)c3ccccc3)[C@]3(O)C[C@H](OC(=O)[C@H](O)[C@@H](NC(=O)c4ccccc4)c4ccccc4)C(C)=C1C3(C)C)[C@]1(OC(C)=O)CO[C@@H]1C[C@@H]2O [Paclitaxel],Combination effect in the presence of Compound 1,[2],less than additive effect
NC(=O)c1ncn([C@@H]2O[C@H](CO)[C@@H](O)[C@H]2O)n1 [Ribavirin],IC50,[3]; [24],172 µM
same,IC50,[3]; [25],173 µM
same,Fold change (IC50 in DMS-114 cells),[3],0.99
same,IC50,[4]; [26],63.3 ± 10 µM
same,IC50,[4]; [27],15.5 ± 3.1 µM
same,Fold change (IC50 in Jurkat cells),[4],4.09 ± 0.16
O=NN(CCCl)C(=O)NCCCl [Carmustine],IC50,[3]; [24],33.3 ± 7.3 µM
same,IC50,[3]; [25],11.5 ± 3.6 µM
same,Fold change (IC50 in DMS-114 cells),[3],6.12 ± 7.5
same,IC50,[4]; [26],2.97 ± 1.1 µM
same,IC50,[4]; [27],3.13 ± 0.49 µM
same,Fold change (IC50 in Jurkat cells),[4],0.93 ± 0.21
O=C(O)c1cccnc1 [nicotinic acid],Rescue from decline in NAD^+ levels,[5],can rescue
same,Rescue from NF-κB inhibition,[6],can rescue
same,Rescue from Compound 1 induced cytotoxicity by nicotinic acid,[7],rescue
same,Effect of nicotinic acid on the anti-tumor activity of Compound 2,[8]; nicotinic acid 120 mg/kg 4 hours infusion after Compound 2 150 mg/kg,able to inhibit the anti-tumor activity of Compound 2
same,Effect of niacin on the anti-tumor activity of Compound 2,[9]; niacin 120 mg/kg 4 hours after Compound 2 150 mg/kg,unable to inhibit the anti-tumor activity of Compound 2
same,Effect of niacin on the anti-tumor activity of Compound 2,[9]; niacin 120 mg/kg 4 hours after Compound 2 650 mg/kg,did not inhibit the anti-tumor activity of Compound 2
same,Percentage of sarcomas not being rescued,"[10]; 13 sarcoma cell lines, Compound 1 with nicotinic acid",60%
same,Neuroblastoma and glioblastoma cell lines not rescued by nicotinic acid,[10]; Compound 1 induced cytotoxicity,Two out of three
same,Number of sarcoma cell lines not rescued by nicotinic acid,"[10]; out of 13 sarcoma cell lines tested, Compound 1 with 0.01, 0.1 and 1 mM nicotinic acid",8
same,Rescue from Compound 1 induced cytotoxicity by nicotinic acid,[11],not rescued
same,Rescue from Compound 1 induced cytotoxicity by nicotinic acid,[12],not rescued
same,Rescue from Compound 1 induced cytotoxicity by nicotinic acid,[13],not rescued
same,Rescue from Compound 1 induced cytotoxicity by nicotinic acid,[14],not rescued
same,Rescue from Compound 1 induced cytotoxicity by nicotinic acid,[15],not rescued
same,Rescue from Compound 1 induced cytotoxicity by nicotinic acid,[16],not rescued
same,Rescue from Compound 1 induced cytotoxicity by nicotinic acid,[17],not rescued
same,Rescue from Compound 1 induced cytotoxicity by nicotinic acid,[18],not rescued
same,Rescue from Compound 1 induced cytotoxicity by nicotinic acid,[19],not rescued
same,Rescue from Compound 1 induced cytotoxicity by nicotinic acid,[20],not rescued
CNNCc1ccc(C(=O)NC(C)C)cc1 [Procarbazine],Combination effect in the presence of Compound 1,[2],less than additive effect
O=P1(N(CCCl)CCCl)NCCCO1 (stereo not shown) [Cyclophosphamide],Combination effect in the presence of Compound 1,[2],less than additive effect
CN(N=O)C(=O)N[C@H]1C(O)O[C@H](CO)[C@@H](O)[C@@H]1O (mixture of isomers) [Streptozotocin],IC50,[3]; [25],391 ± 152 µM
same,IC50,"[3]; read-out: IC50 in DMS-114 cells (μM), DNA damaging chemotherapeutic agent + No Compound 1, agent alone, 3 days, relative to DMSO control",3960 ± 2270 µM
same,IC50,[4]; [27],360 ± 304 µM
same,IC50,"[4]; read-out: IC50 in Jurkat cells (μM), DNA damaging chemotherapeutic agent + No Compound 1, agent alone, 3 days, relative to DMSO control",1014 ± 10 µM
"COCCOCCOCCOCCOC(=O)OC[n+]1ccc(NC(=NC#N)NCCCCCCOc2ccc(Cl)cc2)cc1.[Cl-] [Compound 2, 1-[2-(2-(2-(2-Methoxyethoxy)-ethoxy)-ethoxy)-ethoxy-carbonyloxymethyl]-4-[N′-cyano-N″-(6-(4-chlorophenoxy)-hexyl)-N-guanidino]-pyridinium chloride]",Mortality by day 5,[21]; then nicotinic acid 90 mg/m^2/h for 4 h (Group 2),0/4
same,Mortality by day 5,[21]; then nicotinic acid 90 mg/m^2/h for 24 h (Group 3),0/5
same,Mortality by day 5,"[21]; then saline, no nicotinic acid (Group 1), 650 mg/kg",3 of the 5 and 3/5
same,Tumor growth compared to vehicle,"[8]; Compound 2 150 mg/kg IV 24 hours infusion from day eight, observation 23 days",statistically significant reduction in tumor growth
same,Tumor growth compared to vehicle,"[9]; Compound 2 150 mg/kg IV 24 hours infusion from day fifteen, observation 22 days",statistically significant reduction in tumor growth
same,Tumor growth compared to vehicle,[9]; Compound 2 650 mg/kg IV 24 hours infusion,significant reduction in tumor growth
same,Mortality in treatment group,"[9]; Compound 2 650 mg/kg IV 24 hours infusion, tumor-bearing mice",mortality of a mouse in this treatment group
same,Mortality by day 11,"[22]; Compound 2 250 mg/kg intramuscular QD × 5, no nicotinic acid, 250 mg/kg",3 of the 5 and 3/5
same,Mortality by day 11,"[22]; Compound 2 250 mg/kg intramuscular QD × 5, nicotinic acid pre-treatment 200 mg/kg IV QD × 5",0/5
same,Mortality by day 11,"[22]; Compound 2 250 mg/kg intramuscular QD × 5, nicotinic acid pre-treatment 200 mg/kg PO QD × 5",0/5
same,Mortality by day 11,"[22]; Compound 2 250 mg/kg intramuscular QD × 5, nicotinic acid pre-treatment 200 mg/kg SC QD × 5",0/5
"O=C(/C=C/c1cccnc1)NCCCCC1CCN(C(=O)c2ccccc2)CC1 [FK866, (E)-N-[4-(1-benzoylpiperidin-4-yl)butyl]-3-(pyridin-3-yl)acrylamide]",Inhibition of human NMPRT,[23],potent
Sc1ncnc2nc[nH]c12 [6-Mercaptopurine],Combination effect in the presence of Compound 1,[2],less than additive effect
Cn1nnc2c(C(N)=O)ncn2c1=O [Temozolomide],IC50,[3]; [24],339 ± 190 µM
same,IC50,[3]; [25],50.1 ± 7.83 µM
same,Fold change (IC50 in DMS-114 cells),[3],2.53 ± .11
same,IC50,[4]; [26],212 ± 135 µM
same,IC50,[4]; [27],158 ± 125 µM
same,Fold change (IC50 in Jurkat cells),[4],1.46 ± 0.26
